Values of other authors, collected in patent publication US20070036859A1, “Sustained release antihistamine and decongestant composition” (priority 2005, published 2007).

Conditions: conventional tablets, oral

**Q.** For CCOC(=O)N1CCC(=C2c3ccc(Cl)cc3CCc3cccnc32)CC1 [loratadine], which “duration of antihistaminic effect” value is on record?
**A.** > 24 h

**Q.** And the “time to begin of antihistaminic effect after ingestion” value?
**A.** one to three
